Source: patent US11566007B2, “Ras inhibitors” (Revolution Medicines, Inc., priority 2019, dated 2023)
Values joined by “and” are separate entries in the source; they are usually repeats but may differ in a detail not shown here. Identical values can stand only once. Like-named read-outs stand apart in the source and are kept apart here.

What was measured:
KRAS WT = KRAS WT (Homo sapiens (Human), UniProt P01116+P62937); test: Ras-Raf (BRAF RBD) disruption / FRET / MOA assay, KRAS WT; assay type: biochemical; settings: read-out: IC50* KRAS WT FRET data
Sequence of KRAS WT (P01116-2 other isoform, or with tags, fused parts or gaps): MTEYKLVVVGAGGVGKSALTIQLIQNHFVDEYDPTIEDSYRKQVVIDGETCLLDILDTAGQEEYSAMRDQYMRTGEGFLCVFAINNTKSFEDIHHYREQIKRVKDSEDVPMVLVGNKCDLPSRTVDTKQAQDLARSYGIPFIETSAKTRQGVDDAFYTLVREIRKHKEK
Sequence of KRAS WT (P62937 whole entry): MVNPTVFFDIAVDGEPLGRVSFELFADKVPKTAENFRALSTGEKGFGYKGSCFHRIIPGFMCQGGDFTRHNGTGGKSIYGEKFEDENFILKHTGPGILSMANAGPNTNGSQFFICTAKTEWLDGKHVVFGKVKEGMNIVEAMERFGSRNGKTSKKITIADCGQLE
Method in brief: (§1)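 Compound-driven ternary complex of nucleotide-loaded Ras with cyclophilin A, disrupting BRAF RBD binding. 10-point 3-fold dilution from 30 μM final, 3 h at 25° C, then anti-His Eu-W1024 (10 nM) and anti-GST allophycocyanin (50 nM) for 1.5 h. IC50 from TR-FRET ratio decrease versus DMSO.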

KRAS G12V = KRAS G12V (Homo sapiens (Human), UniProt P01116+P62937, G12V); test: Ras-Raf (BRAF RBD) disruption / FRET / MOA assay, KRAS G12V; assay type: biochemical; settings: read-out: IC50* KRAS G12V FRET data
Sequence of KRAS G12V (P01116-2 other isoform, or with tags, fused parts or gaps G12V): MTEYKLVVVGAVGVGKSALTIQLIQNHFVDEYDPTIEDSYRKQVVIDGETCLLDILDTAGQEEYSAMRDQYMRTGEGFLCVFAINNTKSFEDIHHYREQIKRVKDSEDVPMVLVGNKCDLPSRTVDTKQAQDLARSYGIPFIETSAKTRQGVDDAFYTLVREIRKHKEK
Sequence of KRAS G12V (P62937 whole entry): as the sequence (P62937 whole entry) above
Method in brief: as §1

KRAS G12D = KRAS G12D (Homo sapiens (Human), UniProt P01116+P62937, G12D); test: Ras-Raf (BRAF RBD) disruption / FRET / MOA assay, KRAS G12D; assay type: biochemical; settings: Ras-Raf disruption/FRET/MOA assay; class symbols; read-out: KRAS G12D FRET data IC50
Sequence of KRAS G12D (P01116-2 other isoform, or with tags, fused parts or gaps G12D): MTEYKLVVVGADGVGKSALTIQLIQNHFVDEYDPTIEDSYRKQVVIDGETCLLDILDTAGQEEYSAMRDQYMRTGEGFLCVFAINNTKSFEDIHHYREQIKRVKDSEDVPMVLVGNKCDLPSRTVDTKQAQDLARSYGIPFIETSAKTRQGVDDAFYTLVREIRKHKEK
Sequence of KRAS G12D (P62937 whole entry): as the sequence (P62937 whole entry) above
Method in brief: as §1

KRAS G13D = KRAS G13D (Homo sapiens (Human), UniProt P01116+P62937, G13D); test: Ras-Raf (BRAF RBD) disruption / FRET / MOA assay, KRAS G13D; assay type: biochemical; settings: read-out: IC50* KRAS G13D FRET data
Sequence of KRAS G13D (P01116-2 other isoform, or with tags, fused parts or gaps G13D): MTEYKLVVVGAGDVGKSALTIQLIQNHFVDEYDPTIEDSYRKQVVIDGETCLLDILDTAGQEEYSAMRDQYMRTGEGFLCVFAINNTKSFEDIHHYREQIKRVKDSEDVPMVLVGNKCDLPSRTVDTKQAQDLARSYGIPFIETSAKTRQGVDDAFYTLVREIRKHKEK
Sequence of KRAS G13D (P62937 whole entry): as the sequence (P62937 whole entry) above
Method in brief: as §1

KRAS G12S = KRAS G12S (Homo sapiens (Human), UniProt P01116+P62937, G12S); test: Ras-Raf (BRAF RBD) disruption / FRET / MOA assay, KRAS G12S; assay type: biochemical; settings: Ras-Raf disruption/FRET/MOA assay; class symbols; read-out: KRAS G12S FRET data IC50
Sequence of KRAS G12S (P01116-2 other isoform, or with tags, fused parts or gaps G12S): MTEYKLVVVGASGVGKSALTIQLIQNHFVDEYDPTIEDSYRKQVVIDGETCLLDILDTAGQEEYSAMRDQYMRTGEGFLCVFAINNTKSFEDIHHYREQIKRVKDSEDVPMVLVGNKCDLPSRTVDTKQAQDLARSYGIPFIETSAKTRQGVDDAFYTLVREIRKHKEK
Sequence of KRAS G12S (P62937 whole entry): as the sequence (P62937 whole entry) above
Method in brief: as §1

K-Ras G12C = K-Ras G12C (Homo sapiens (Human), UniProt P01116+P62937, G12C); test: Ras-Raf (BRAF RBD) disruption / FRET / MOA assay, KRAS G12C; assay type: biochemical; settings: KRAS G12C; Ras-Raf disruption/FRET/MOA assay; read-out: IC50* KRAS G12C FRET data
Sequence of K-Ras G12C (P01116-2 other isoform, or with tags, fused parts or gaps G12C): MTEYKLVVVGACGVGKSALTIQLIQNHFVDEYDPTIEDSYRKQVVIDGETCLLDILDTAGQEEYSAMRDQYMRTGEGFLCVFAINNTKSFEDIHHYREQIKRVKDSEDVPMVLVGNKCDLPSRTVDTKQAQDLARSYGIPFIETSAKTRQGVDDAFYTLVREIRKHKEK
Sequence of K-Ras G12C (P62937 whole entry): as the sequence (P62937 whole entry) above
Method in brief: as §1

NRAS G12C = NRAS G12C (Homo sapiens (Human), UniProt P01111+P62937, G12C); test: Ras-Raf (BRAF RBD) disruption / FRET / MOA assay, NRAS G12C; assay type: biochemical; settings: read-out: IC50* NRAS G12C FRET data
Sequence of NRAS G12C (P01111 whole entry G12C): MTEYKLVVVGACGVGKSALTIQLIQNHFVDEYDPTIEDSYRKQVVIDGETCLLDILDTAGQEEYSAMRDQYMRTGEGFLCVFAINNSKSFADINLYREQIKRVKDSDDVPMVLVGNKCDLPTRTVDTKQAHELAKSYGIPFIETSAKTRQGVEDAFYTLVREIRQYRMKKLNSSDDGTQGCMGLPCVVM
Sequence of NRAS G12C (P62937 whole entry): as the sequence (P62937 whole entry) above
Method in brief: as §1

[1] = test system: NCI-H358 cells (K-Ras G12C); test: Potency assay: pERK in NCI-H358 cells; assay type: cell-based, human; settings: H358 KRAS G12C, read-out: pERK EC50
Method in brief: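 Compounds are dosed as ten 3-fold dilutions from a 10 mM DMSO stock, in duplicate, and left on cells for 4 h at 37 °C, 5% CO2. Phospho-ERK1/2 is then quantified by AlphaLISA SureFire Ultra or In-Cell Western, and IC50 is derived from a 4-parameter sigmoid against log concentration.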

NCI-H358 (K-Ras G12C) = test: CellTiter-Glo cell viability assay, NCI-H358; assay type: cell-based, human; settings: Homo sapiens, NCI-H358, 120 h, NCI-H358, 5-day treatment; class symbols; read-out: Additional H358 Cell Viability assay data (K-Ras G12C, IC50)
Method in brief: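 Luminescent viability readout on day 5 after direct compound addition to plated cells; plates sat ~30 min at room temperature before reading. Values expressed as percent of mean DMSO signal, curves fit with a four-parameter logistic model.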

K-Ras G13C = K-Ras G13C (Homo sapiens (Human), UniProt P01116+P62937, G13C); test: Ras-Raf (BRAF RBD) disruption / FRET / MOA assay, KRAS G13C; assay type: biochemical; settings: KRAS G13C; Ras-Raf disruption/FRET/MOA assay; read-out: IC50* KRAS G13C FRET data
Sequence of K-Ras G13C (P01116-2 other isoform, or with tags, fused parts or gaps G13C): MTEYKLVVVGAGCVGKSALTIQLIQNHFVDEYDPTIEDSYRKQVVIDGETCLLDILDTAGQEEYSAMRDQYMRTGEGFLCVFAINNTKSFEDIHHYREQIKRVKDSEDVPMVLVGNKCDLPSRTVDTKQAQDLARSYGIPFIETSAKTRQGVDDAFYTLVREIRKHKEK
Sequence of K-Ras G13C (P62937 whole entry): as the sequence (P62937 whole entry) above
Method in brief: as §1

Structure (SMILES)	IC50 (KRAS WT)	IC50 (KRAS G12V)	IC50 (KRAS G12D)	IC50 (KRAS G13D)	IC50 (KRAS G12S)	IC50 (K-Ras G12C) [nM]	IC50 (NRAS G12C)	EC50 ([1]; Homo sapiens, NCI-H358) [µM]	IC50 (NCI-H358 (K-Ras G12C)) [nM]	IC50 (K-Ras G13C)	EC50 [1] [µM]
CCn1c(-c2cccnc2[C@H](C)OC)c2c3cc(ccc31)-c1nsc(n1)C[C@H](NC(=O)[C@H](C(C)C)N(C)C(=O)[C@H]1CCN(C(=O)C#CCN3CCOCC3)C1)C(=O)N1CCC[C@H](N1)C(=O)OCC(C)(C)C2 (atropisomer, axis not shown) [Example A201]	> 10000 nM	> 10000 nM	> 10000 nM	> 10000 nM	> 10000 nM	10 to 100	100 to 1000 nM	< 5	10 to 100	1000 to 10000 nM	–
C=CC(=O)N1CC[C@H](C(=O)N(C)[C@H](C(=O)NN2Cc3cc(O)cc(c3)-c3ccc4c(c3)c(c(-c3cccnc3[C@H](C)OC)n4CC)CC(C)(C)COC(=O)[C@@H]3CCCN(N3)C2=O)C(C)C)C1 (atropisomer, axis not shown) [Example A233]	10 to 100 nM	10 to 100 nM	100 to 1000 nM	100 to 1000 nM	10 to 100 nM	10 to 100	10 to 100 nM	< 5	10 to 100	10 to 100 nM	–
CCn1c(-c2cccnc2[C@H](C)OC)c2c3cc(ccc31)-c1cc(O)cc(c1)C[C@H](NC(=O)[C@H](C(C)C)N(C)C(=O)[C@H]1CCN(C(=O)C#CCN3[C@@H](C)COC[C@@H]3C)C1)C(=O)N1CCC[C@H](N1)C(=O)OCC(C)(C)C2 (atropisomer, axis not shown) [Example A244]	100 to 1000 nM	100 to 1000 nM	1000 to 10000 nM	100 to 1000 nM	100 to 1000 nM	< 10	< 10 nM	< 5	< 10	10 to 100 nM	–
CCn1c(-c2cccnc2[C@H](C)OC)c2c3cc(ccc31)-c1cc(O)cc(c1)C[C@H](NC(=O)[C@H](C(C)C)N(C)C(=O)[C@H]1CCN(C(=O)C#CCN3[C@H](C)COC[C@@H]3C)C1)C(=O)N1CCC[C@H](N1)C(=O)OCC(C)(C)C2 (atropisomer, axis not shown) [Example A245]	100 to 1000 nM	10 to 100 nM	1000 to 10000 nM	100 to 1000 nM	100 to 1000 nM	< 10	< 10 nM	< 5	< 10	10 to 100 nM	–
CCn1c(-c2cccnc2[C@H](C)OC)c2c3cc(ccc31)-c1cc(O)cc(c1)C[C@H](NC(=O)[C@H](C(C)C)N(C)C(=O)[C@H]1CCN(C(=O)C#C[C@@H]3CCCN3C)C1)C(=O)N1CCC[C@H](N1)C(=O)OCC(C)(C)C2 (atropisomer, axis not shown) [Example A247]	100 to 1000 nM and 1000 to 10000 nM	100 to 1000 nM and 1000 to 10000 nM	1000 to 10000 nM and 100 to 1000 nM	100 to 1000 nM and 1000 to 10000 nM	100 to 1000 nM and 1000 to 10000 nM	< 10	< 10 nM	< 5	10 to 100	10 to 100 nM and < 10 nM	–
CCn1c(-c2cccnc2[C@H](C)OC)c2c3cc(ccc31)-c1cc(O)cc(c1)C[C@H](NC(=O)[C@H](C(C)C)N(C)C(=O)c1ccc(NC(=O)/C=C/CN(C)C)nc1)C(=O)N1CCC[C@H](N1)C(=O)OCC(C)(C)C2 (atropisomer, axis not shown) [Example A249]	1000 to 10000 nM	1000 to 10000 nM	> 10000 nM	1000 to 10000 nM	1000 to 10000 nM	100 to 1000	100 to 1000 nM	< 5	100 to 1000	10 to 100 nM	–
C=CC(=O)Nc1ccc(C(=O)N(C)[C@H](C(=O)N[C@H]2Cc3cc(O)cc(c3)-c3ccc4c(c3)c(c(-c3cccnc3[C@H](C)OC)n4CC)CC(C)(C)COC(=O)[C@@H]3CCCN(N3)C2=O)C(C)C)cn1 (atropisomer, axis not shown) [Example A250]	100 to 1000 nM and 1000 to 10000 nM	100 to 1000 nM and > 10000 nM	1000 to 10000 nM and > 10000 nM	100 to 1000 nM and > 10000 nM	100 to 1000 nM and 1000 to 10000 nM	10 to 100	10 to 100 nM and < 10 nM	< 5	10 to 100	10 to 100 nM and < 10 nM	–
CCn1c(-c2cccnc2[C@H](C)OC)c2c3cc(ccc31)-c1cc(O)cc(c1)C[C@H](NC(=O)[C@H](C(C)C)N(C)C(=O)c1ncc(NC(=O)/C=C/CN(C)C)s1)C(=O)N1CCC[C@H](N1)C(=O)OCC(C)(C)C2 (atropisomer, axis not shown) [Example A253]	100 to 1000 nM	100 to 1000 nM	1000 to 10000 nM	100 to 1000 nM	1000 to 10000 nM	10 to 100	100 to 1000 nM	< 5	100 to 1000	< 10 nM	–
C=CC(=O)Nc1cnc(C(=O)N(C)[C@H](C(=O)N[C@H]2Cc3cc(O)cc(c3)-c3ccc4c(c3)c(c(-c3cccnc3[C@H](C)OC)n4CC)CC(C)(C)COC(=O)[C@@H]3CCCN(N3)C2=O)C(C)C)s1 (atropisomer, axis not shown) [Example A254]	100 to 1000 nM	1000 to 10000 nM	1000 to 10000 nM	1000 to 10000 nM	1000 to 10000 nM	100 to 1000	100 to 1000 nM	< 5	100 to 1000	10 to 100 nM	–
C=CC(=O)Nc1cnc(C(=O)N(C)[C@H](C(=O)N[C@H]2Cc3cc(O)cc(c3)-c3ccc4c(c3)c(c(-c3cccnc3[C@H](C)OC)n4CC)CC(C)(C)COC(=O)[C@@H]3CCCN(N3)C2=O)C(C)C)n1C (atropisomer, axis not shown) [Example A255]	100 to 1000 nM	100 to 1000 nM	100 to 1000 nM	100 to 1000 nM	10 to 100 nM	< 10	< 10 nM	–	< 10	< 10 nM	< 5
C=CC(=O)N1CC(C(=O)N(C)[C@H](C(=O)N[C@H]2Cc3cc(O)cc(c3)-c3ccc4c(c3)c(c(-c3cccnc3[C@H](C)OC)n4CC)CC(C)(C)COC(=O)[C@@H]3CCCN(N3)C2=O)C(C)C)C1 (atropisomer, axis not shown) [Example A256]	10 to 100 nM	100 to 1000 nM	100 to 1000 nM	100 to 1000 nM	10 to 100 nM	< 10	10 to 100 nM	< 5	< 10	10 to 100 nM	–
CCn1c(-c2cccnc2[C@H](C)OC)c2c3cc(ccc31)-c1cc(O)cc(c1)C[C@H](NC(=O)[C@H](C(C)C)N(C)C(=O)C1CN(C(=O)/C=C/CN(C)C)C1)C(=O)N1CCC[C@H](N1)C(=O)OCC(C)(C)C2 (atropisomer, axis not shown) [Example A257]	100 to 1000 nM	100 to 1000 nM	100 to 1000 nM	100 to 1000 nM	100 to 1000 nM	< 10	< 10 nM	< 5	10 to 100	10 to 100 nM	–
C=CC(=O)Nc1csc(C(=O)N(C)[C@H](C(=O)N[C@H]2Cc3cc(O)cc(c3)-c3ccc4c(c3)c(c(-c3cccnc3[C@H](C)OC)n4CC)CC(C)(C)COC(=O)[C@@H]3CCCN(N3)C2=O)C(C)C)n1 (atropisomer, axis not shown) [Example A259]	100 to 1000 nM	1000 to 10000 nM	> 10000 nM	1000 to 10000 nM	1000 to 10000 nM	100 to 1000	100 to 1000 nM	< 5	100 to 1000	10 to 100 nM	–
C=CC(=O)N1CCC(C(=O)N(C)[C@H](C(=O)N[C@H]2Cc3cc(O)cc(c3)-c3ccc4c(c3)c(c(-c3cccnc3[C@H](C)OC)n4CC)CC(C)(C)COC(=O)[C@@H]3CCCN(N3)C2=O)C(C)C)CC1 (atropisomer, axis not shown) [Example A260]	10 to 100 nM	100 to 1000 nM	100 to 1000 nM	10 to 100 nM	10 to 100 nM	10 to 100	10 to 100 nM	< 5	< 10	10 to 100 nM	–
CCn1c(-c2cccnc2[C@H](C)OC)c2c3cc(ccc31)-c1cc(O)cc(c1)C[C@H](NC(=O)[C@H](C(C)C)N(C)C(=O)N1CCN(C(=O)/C=C/CN(C)C)CC1)C(=O)N1CCC[C@H](N1)C(=O)OCC(C)(C)C2 (atropisomer, axis not shown) [Example A263]	10 to 100 nM	100 to 1000 nM	100 to 1000 nM	10 to 100 nM	100 to 1000 nM	10 to 100	10 to 100 nM	< 5	100 to 1000	10 to 100 nM	–
